These results are taken from patent publication US11208399B2, “NLRP3 inflammasome inhibitors” (Novartis AG, priority 2019, dated 2021).

Structures can show the parent of a compound that is named as a salt.

This assay deals with NF-kB-dependent TNF-α secretion. The assay can be described thus: TNF-α secretion assay in THP-1 cells (counter screen, HTRF). The format is cell-based. The following applies: Homo sapiens, Pam3CSK4-stimulated, 3 hours. The protocol: Monocytic THP-1 cells were maintained according to providers' instructions in RPMI media as described above. […] Experimental compounds were prepared and added as described above. TNF-α secretion was triggered by the addition of either 1 μg/mL LPS (Sigma, #L4391) or 100 ng/mL Pam3CSK4 (Invivogen, #tlrl-pms) depending on the experiment, and cells were incubated for 3 hours. 10 μL supernatant was removed, and TNF-α levels were monitored using an HTRF assay (CisBio, #62TNFPEC) according to manufacturers' instructions. Viability was monitored as described above.
IC50 values were calculated from the plot of percentage of inhibition versus the inhibitor concentration by a logistics fit according to: y=A2+(A1−A2)/(1+(x/IC50)^p) where y is the %-inhibition at the inhibitor concentration, x. A1 is the lowest inhibition value, i.e. 0%, and A2 the maximum inhibition value, i.e. 100%. The exponent, p, is the Hill coefficient. The curve fitting was conducted with an internally developed software suite. […]
(In general: Counterscreens check selectivity or assay interference.)
Consider `CN1CCC[C@@H](Nc2ccc(-c3c(O)cc(C(F)(F)F)cc3Cl)nn2)C1` [Ex 49, (R)-3-Chloro-2-(6-((1-methylpiperidin-3-yl)amino)pyridazin-3-yl)-5-(trifluoromethyl)phenol], for which the half-inhibitory concentration (IC50) (as a rule, the concentration at which inhibition is half-maximal) is above 100 µM.

In the case of `Cc1cc(-c2c(C)cc(C(F)(F)F)cc2O)nnc1N[C@@H]1CCCN(CCO)C1` [Ex 13, (R)-2-(6-((1-(2-Hydroxyethyl)piperidin-3-yl)amino)-5-methylpyridazin-3-yl)-3-methyl-5-(trifluoromethyl)phenol], the IC50 was above 100 µM.

Compound `Cc1cc(C(F)(F)F)cc(O)c1-c1ccc(N[C@H]2CC[C@H]3CC[C@@H]2N3CCO)nn1` (single isomer, unassigned) [Ex 86a] returned an IC50 above 100 µM.

`Cc1ccc(-c2nnc(N[C@@H]3CCCN(C)C3)cc2C(F)(F)F)c(O)c1` [Ex 50, (R)-5-Methyl-2-(6-((1-methylpiperidin-3-yl)amino)-4-(trifluoromethyl)pyridazin-3-yl)phenol] came in with an IC50 above 100 µM.

For the compound `CN1CCC[C@@H](Nc2cc(C(F)(F)F)c(-c3ccc(C(F)(F)F)cc3O)nn2)C1` [Ex 53, (R)-2-(6-((1-Methylpiperidin-3-yl)amino)-4-(trifluoromethyl)pyridazin-3-yl)-5-(trifluoromethyl)phenol], the half-maximal inhibitory concentration (IC50) is above 33 µM.

As for `Cc1cc(C(F)(F)F)cc(O)c1-c1ccc(N[C@@H]2CCCN(CCO)C2)nn1` [Ex 6, (R)-2-(6-((1-(2-Hydroxyethyl)piperidin-3-yl)amino)pyridazin-3-yl)-3-methyl-5-(trifluoromethyl)phenol], the IC50 was above 100 µM.

Regarding `Cc1cc(C(F)(F)F)cc(O)c1-c1nnc(N[C@@H]2CCCN(C)C2)c(C)c1C` [Ex 40, 2-(4,5-Dimethyl-6-(((R)-1-methylpiperidin-3-yl)amino)pyridazin-3-yl)-3-methyl-5-(trifluoromethyl)phenol TFA-salt], the IC50 is above 33 µM.

Regarding `Cc1cc(-c2ccc(C(F)(F)F)cc2O)nnc1N[C@@H]1CCCN(C)C1` [Ex 65, (R)-2-(5-Methyl-6-((1-methylpiperidin-3-yl)amino)pyridazin-3-yl)-5-(trifluoromethyl)phenol], the IC50 is above 33 µM.

As to `Oc1cc(Cl)cc(Cl)c1-c1ccc(NCC(F)(F)F)nn1` [Ex 27, 3,5-Dichloro-2-(6-((2,2,2-trifluoroethyl)amino)pyridazin-3-yl)phenol], the IC50 was above 100 µM.

Turning to `Cc1cc(C(F)(F)F)cc(O)c1-c1ccc(N[C@H]2CC[C@@H](CO)N(C)C2)nn1` [Ex 87b, 2-(6-(((3S,6S)-6-(Hydroxymethyl)-1-methylpiperidin-3-yl)amino)pyridazin-3-yl)-3-methyl-5-(trifluoromethyl)phenol], the IC50 came out at 77 µM.

Compound `Cc1cc(C(F)(F)F)cc(O)c1-c1ccc(N[C@@H]2CC[C@H](CO)N(C)C2)nn1` [Ex 87a, 2-(6-(((3R,6R)-6-(Hydroxymethyl)-1-methylpiperidin-3-yl)amino)pyridazin-3-yl)-3-methyl-5-(trifluoromethyl)phenol] displayed a 50% inhibitory concentration (IC50) above 100 µM.

Compound `Cc1cc(C(F)(F)F)cc(O)c1-c1ccc(N[C@H]2CCCN(C)C2)nn1` [Ex 36, (S)-3-Methyl-2-(6-((1-methylpiperidin-3-yl)amino)pyridazin-3-yl)-5-(trifluoromethyl)phenol] came in with an IC50 above 100 µM.

`Cc1cc(C(F)(F)F)cc(O)c1-c1cc(C(F)(F)F)c(N[C@@H]2CCCN(C)C2)nn1` [Ex 64, (R)-3-Methyl-2-(6-((1-methylpiperidin-3-yl)amino)-5-(trifluoromethyl)pyridazin-3-yl)-5-(trifluoromethyl)phenol] came in with an IC50 above 100 µM.

In turn, `Cc1cc(C(F)(F)F)cc(O)c1-c1ccc(NC2CCC(C(F)(F)F)NC2)nn1` (stereo not drawn) [Ex 62, 3-Methyl-5-(trifluoromethyl)-2-(6-((6-(trifluoromethyl)piperidin-3-yl)amino)pyridazin-3-yl)phenol] yielded an IC50 above 100 µM.

The compound `Cc1cc(-c2c(C)cc(C(F)(F)F)cc2O)nnc1N[C@@H]1CCCNC1` [Ex 100, (R)-3-Methyl-2-(5-methyl-6-(piperidin-3-ylamino)pyridazin-3-yl)-5-(trifluoromethyl)phenol] displayed an IC50 above 100 µM.

Turning to `CN1CCC[C@@H](Nc2ccc(-c3c(O)cc(Cl)cc3Cl)nn2)C1` [Ex 45, (R)-3,5-Dichloro-2-(6-((1-methylpiperidin-3-yl)amino)pyridazin-3-yl)phenol TFA-salt], the IC50 is above 100 µM.

Compound `CCN1CCC[C@@H](Nc2nnc(-c3c(C)cc(C(F)(F)F)cc3O)cc2C)C1` [Ex 101, (R)-2-(6-((1-Ethylpiperidin-3-yl)amino)-5-methylpyridazin-3-yl)-3-methyl-5-(trifluoromethyl)-phenol] yielded an IC50 above 100 µM.

`Cc1cc(C(F)(F)F)cc(O)c1-c1ccc(N[C@@H]2CCCN(C)C2)nn1` [Ex 12, (R)-3-Methyl-2-(6-((1-methylpiperidin-3-yl)amino)pyridazin-3-yl)-5-(trifluoromethyl)phenol] had an IC50 above 100 µM.

Compound `Oc1cc(Cl)cc(Cl)c1-c1ccc(NC2CC2)nn1` [Ex 44, 3,5-Dichloro-2-(6-(cyclopropylamino)pyridazin-3-yl)phenol] registered an IC50 above 100 µM.

Turning to `Cc1cc(C)c(-c2ccc(N[C@@H]3CCCN(C)C3)nn2)c(O)c1` [Ex 47, (R)-3,5-Dimethyl-2-(6-((1-methylpiperidin-3-yl)amino)pyridazin-3-yl)phenol], the IC50 was above 100 µM.

For the compound `Cc1cc(C(F)(F)F)cc(O)c1-c1ccc(Nc2cccnc2)nn1` [Ex 46, 3-Methyl-2-(6-(pyridin-3-ylamino)pyridazin-3-yl)-5-(trifluoromethyl)phenol], the IC50 is above 100 µM.

For `CN1CCC[C@@H](Nc2ccc(-c3c(O)cc(C(F)(F)F)cc3C(F)(F)F)nn2)C1` [Ex 39, (R)-2-(6-((1-Methylpiperidin-3-yl)amino)pyridazin-3-yl)-3,5-bis(trifluoromethyl)phenol], the IC50 is above 100 µM.

With `CCN1CCC[C@@H](Nc2nnc(-c3c(C)cc(C(F)(F)F)cc3O)cc2C#N)C1` [Ex 11, (R)-3-((1-Ethylpiperidin-3-yl)amino)-6-(2-hydroxy-6-methyl-4-(trifluoromethyl)phenyl)pyridazine-4-carbonitrile], the IC50 is above 100 µM.

`Cc1cc(C(F)(F)F)cc(O)c1-c1ccc(N[C@@H]2CCCNC2)nn1` [Ex 74, (R)-3-Methyl-2-(6-(piperidin-3-ylamino)pyridazin-3-yl)-5-(trifluoromethyl)phenol] had an IC50 above 100 µM.

`CCN1CCC[C@@H](Nc2ccc(-c3c(C)cc(C(F)(F)F)cc3O)nn2)C1` [Ex 1, (R)-2-(6-((1-Ethylpiperidin-3-yl)amino)pyridazin-3-yl)-3-methyl-5-(trifluoromethyl)phenol] gave an IC50 above 100 µM.

Consider `Cc1cc(C(F)(F)F)cc(O)c1-c1ccc(N[C@H]2CCN(C)C2)nn1` [Ex 18, (S)-3-Methyl-2-(6-((1-methylpyrrolidin-3-yl)amino)pyridazin-3-yl)-5-(trifluoromethyl)phenol], for which the IC50 is above 100 µM.

Turning to `Cc1cc(C(F)(F)F)cc(O)c1-c1ccc(N[C@H]2CC[C@H]3CC[C@@H]2N3C)nn1` (single isomer, unassigned) [Ex 85a], the IC50 is above 100 µM.

`Cc1c(N[C@@H]2CCCN(C)C2)nnc(-c2ccc(C(F)(F)F)cc2O)c1C` [Ex 48, (R)-2-(4,5-Dimethyl-6-((1-methylpiperidin-3-yl)amino)pyridazin-3-yl)-5-(trifluoromethyl)phenol] showed an IC50 above 100 µM.

The compound `Cc1cc(C(F)(F)F)cc(O)c1-c1ccc(N[C@@H]2C[C@H](O)CN(C)C2)nn1` [Ex 97, (3S,5R)-5-((6-(2-Hydroxy-6-methyl-4-(trifluoromethyl)phenyl)pyridazin-3-yl)amino)-1-methylpiperidin-3-ol] came in with an IC50 above 100 µM.

Consider `Cc1cc(N[C@@H]2CCCN(C)C2)nnc1-c1ccc(Cl)cc1O` [Ex 71, (R)-5-Chloro-2-(4-methyl-6-((1-methylpiperidin-3-yl)amino)pyridazin-3-yl)phenol], for which the IC50 is above 100 µM.

`Cc1cc(C(F)(F)F)cc(O)c1-c1ccc(N[C@H]2CCCNC2)nn1` [Ex 33, (S)-3-Methyl-2-(6-(piperidin-3-ylamino)pyridazin-3-yl)-5-(trifluoromethyl)phenol]: the IC50 was above 100 µM.

`Cc1cc(C(F)(F)F)cc(O)c1-c1ccc(NC2CCCN(C(C)C)C2)nn1` (stereo not drawn) [Ex 7, 2-(6-((1-Isopropylpiperidin-3-yl)amino)pyridazin-3-yl)-3-methyl-5-(trifluoromethyl)phenol] yielded an IC50 above 100 µM.

The compound `Cc1cc(C(F)(F)F)cc(O)c1-c1ccc(N[C@H]2CCCN[C@H]2C)nn1` [Ex 91a, 3-Methyl-2-(6-(((2S,3S)-2-methylpiperidin-3-yl)amino)pyridazin-3-yl)-5-(trifluoromethyl)phenol] registered an IC50 above 100 µM.

`CN1CCC[C@@H](Nc2ccc(-c3c(O)cc(Cl)cc3C(F)(F)F)nn2)C1` [Ex 51, (R)-5-Chloro-2-(6-((1-methylpiperidin-3-yl)amino)pyridazin-3-yl)-3-(trifluoromethyl)phenol]: the IC50 was above 100 µM.

Regarding `Cc1cc(N[C@@H]2CCCN(C)C2)nnc1-c1ccc(OC(F)(F)F)cc1O` [Ex 82, (R)-2-(4-Methyl-6-((1-methylpiperidin-3-yl)amino)pyridazin-3-yl)-5-(trifluoromethoxy)phenol], the IC50 was above 100 µM.

For the compound `CN1CCC[C@@H](Nc2cc(C(F)(F)F)c(-c3ccc(Cl)cc3O)nn2)C1` [Ex 70, (R)-5-Chloro-2-(6-((1-methylpiperidin-3-yl)amino)-4-(trifluoromethyl)pyridazin-3-yl)phenol], the IC50 was above 100 µM.
